# Assays:
# E. coli = settings: 25° C.
# Source text: (§1) FIG. 4 schematic illustrates the apparatus used in this experiment. Equipment included: a purified clean dry air (CDA) gas supply; a pressurized deionized (DI) water supply; a pressure regulator with gauge, a Filterite MPTE-010-1/4CS 0.01 micron gas filter; 3 mass flow controllers (MFCs); an MFC control box; a Stable Gaseous Delivery (SGD) System (i.e., “Concentrator” in the diagram) and a relative humidity system (RHS) (RASIRC, San Diego, Calif.). Membranes using a fluorinated ion-exchange polymer prepared as an ammonium salt were utilized.
# Operation of the decontamination apparatus can be understood with reference to FIG. 4. The CDA gas pressure was maintained at 25 psig with the pressure regulator. A 0.01 micron filter removed particulates from the gas stream. The MFCs controlled the flow of the carrier gas streams and the dilution gas stream. The RHS was used to add water gas to the gas stream. […] The water temperature was used to control the output of the humidifier. The valves (V-1, V-2, and V-3) were used to send either the dry CDA gas stream, the RHS gas stream, and/or SGD gas stream through the furnace or out to vent. TC-1 will be used to measure the temperature of the dry CDA gas stream. TC-2 will be used to measure gas temperature downstream of the RHS. TC-3 and TC-4 were used to measure the gas temperature downstream of the SGD. […]
# bovine genomic DNA = tested on: bovine genomic DNA
# Source text: as §1
# Operation of the decontamination apparatus can be understood with reference to FIG. 4. The CDA gas pressure was maintained at 25 psig with the pressure regulator. A 0.01 micron filter removed particulates from the gas stream. The MFCs controlled the flow of the carrier gas streams and the dilution gas stream. […]
# A PCR plate to be used for quantifying amplifiable DNA was prepared with three replicates at each target input level (i.e., ranging from 0 ng to 1,000 ng). In each instance, measured aliquots of an aqueous solution of bovine genomic DNA were added to individual wells of the plate, and then dried. […] Amplification reactions were carried out using procedures familiar to those of ordinary skill in the art, and the appearance of fluorescent signals monitored as a function of time in a real-time format.
# bacterial samples = settings: visible mist or fog present, droplets condensed onto the sample
compound,measurement,setting,value
"OO [Hydrogen Peroxide Gas, hydrogen peroxide]",Growth on tryptic soy agar plates after H202 treatment,"E. coli; E. coli 1.7×10^7 cfu per spot, gas-phase H2O2 at 505 ppm and H2O at 2122 ppm for 60 minutes",No Growth
same,number of viable bacteria after exposure,"E. coli; E. coli, gas-phase H2O2 505 ppm, 60 minutes",undetectable level
same,reduction of amplifiable DNA,bovine genomic DNA; sample containing the greatest amount of starting material,about 4 logs
same,amplifiable DNA after treatment,bovine genomic DNA; sample containing the lowest amount of starting material,completely undetectable
same,reduction of the number of viable organisms,bacterial samples,did not significantly reduce
